Source: US6331555A, “Treatment of platelet derived growth factor related disorders such as cancers” (priority 1999, dated 2001)
Entries after “also recorded” stand apart in the source; their conditions may differ. Like-named read-outs stand apart in the source and are kept apart here.

Assays:
[1] = Ex vivo conversion of A10 to B11 in rat plasma
Method: (§1) Plasma was prepared and frozen in liquid nitrogen. Tissues and organs were resected and immediately frozen in liquid nitrogen. After the addition of an internal standard, plasma samples were acidified with HCl and extracted with acetonitrile. The acetonitrile fraction was evaporated to dryness in a vacuum centrifuge with heating and redissolved in methanol. Tissue and organ samples were homogenized according to the weight ratio of 1:5 (w:v) in 50 mM Tris-HCl, pH 7.4, at 20,000 rev/min, using a tissue homogenizer (Brinkmann Polytron Model PT3000). After the addition of an internal standard, the homogenate was acidified with HCl and then extracted with acetonitrile. The acetonitrile fraction was then extracted with an equal volume of diethyl ether. The ether fraction was evaporated to dryness in a vacuum centrifuge with heating and redissolved in methanol.
(§2) Samples for HPLC analysis were injected onto a Hewlett Packard Hypersil 5-μm C18 cartridge column (100×4.6 mm). The mobile phase was methanol:35 mM KH2 PO4 (pH 4.5) 55:45 containing 4 mM triethylamine. The flow rate was 1.2 mL/min. The compounds were monitored by UV absorption at 254 nm using a Hewlett-Packard diode-array detector (HP Model 1090). Plasma and tissue concentrations were determined from standard curves using peak area for quantitation. […]

[2] = system: RR-SRC peptide substrate; details: cited from earlier work
[3] = system: EGF receptor; experiment: EGF receptor autophosphorylation, T98G glioblastoma cells; assay type: cell-based, human; details: 200, 500; 50 ng/ml EGF
Method: Proteins were then separated by SDS-polyacrylamide gel electrophoresis (PAGE). Proteins containing phosphorylated tyrosine were identified by western blotting with an anti-phosphotyrosine antibody. The level of phosphorylated tyrosine was determined by quantitating the amount of bound anti-phosphotyrosine. Quantitation was carried out by peak area integration using a Molecular Dynamics Computing Densitometer (Model 300S), and Image Quant v3.0 software (Molecule Dynamics). Data were expressed as relative peak.intensity (phosphorylation of a receptor divided by the total amount of phosphorylated tyrosine).
T98G cells were plated in MCDB105 medium containing 2% FBS and incubated for 24 hours at 37° C. […] The cells were then treated with ligand for 10 minutes (20 ng/ml PDGF-BB or 50 ng/ml EGF). The cells were lysed and the level of phosphorylated receptor was quantitated as described in Example 1.

[4] = mouse, in vivo
Method: as §1
(§3) Samples for HPLC analysis were injected onto a Hewlett Packard Hypersil 5-μm C18 cartridge column (100×4.6 mm). The mobile phase was methanol:35 mM KH2 PO4 (pH 4.5) 55:45 containing 4 mM triethylamine. The flow rate was 1.2 mL/min. The compounds were monitored by UV absorption at 254 nm using a Hewlett-Packard diode-array detector (HP Model 1090). Plasma and tissue concentrations were determined from standard curves using peak area for quantitation. […] The internal standard used was 5-methyl-pyrazole-4-carboxylic acid-(4-trifluoromethyl)-anilide.
(§4) Table XXII. […] Plasma and brain samples were prepared and analyzed by HPLC as described in Appendix 6. All results were calculated by the method of internal standardization. NT= not tested, ND= not detected.

[5] = assay type: in vivo, mouse; details: IP A10 40 mg/kg single dose
Method: as §1
as §2, with “The mobile phase was methanol:35 mM KH2 PO4 (pH 4.5) 55:45 containing 4 mM triethylamine. The flow rate was 1.2 mL/min.” left out
as §4

[6] = system: NIH3T3 cells overexpressing the human EGF receptor; experiment: EGF-stimulated mitosis, flow cytometry; assay type: cell-based, mouse; details: 100 mM A10
[7] = system: epidermal growth factor (EGF) receptor; details: listed as leflunomide; cited from earlier work
[8] = in vivo; set-up: species or system rat
Method: as §1, §3, §4

[9] = in vivo; details: mouse, ip
Method: The LD50 was calculated from a plot of % mortality versus dose (log M) using a four parameter logistic equation.

[10] = system: T47D; experiment: Tumor cell line growth; assay type: cell-based; details: Homo sapiens, 96 h, breast, 4 days
Method: (§5) The assay measures protein content of acid-fixed cells using the counterion binding dye sulforhodamine B (SRB, Sigma). […] For other cell lines, the cells (2000 cells/well in 100 μL) were introduced into wells immediately after dispensing the drug solutions. After 4 days (37° C., 5% CO2) the monolayers were washed 3 times with PBS and fixed with 200 μL ice-cold 10% TCA (Fisher Scientific), and kept at 4° C. for 60 min. The TCA was removed and the fixed monolayers were washed 5 times with tap water and allowed to dry completely at room temperature on absorbent paper. The cellular protein was stained for 10 min with 100 μL 0.4% SRB dissolved in 1% acetic acid. After 5 washes with tap water, the dye was solubilized in 10 mM Tris base (100 μL per well) and absorbance read at 570 nm on a Dynatech plate reader model MR5000. Growth inhibition data are expressed as a percentage of absorbance detected in control wells which were treated with 0.4% DMSO alone. DMSO controls were not different from cells grown in regular growth medium. IC50 values were determined using a four parameter curve fit function.
(§6) For K562, DlB, L1210, 7TDl, T27A, and Colo320 DM cells, an MTT assay was used to assess cell growth. […] The cells were incubated at 37° C. for 4 days in a humidified 7% CO2 atmosphere. At the end point, […] of MTT (5 mg/mL in PBS, Sigma) was added to each well. The plates were incubated at 37° C. for 4 hr followed by addition of […] of solubilization solution (20% w/v of SDS in 50% N, N-dimethylformamide, pH 4.7) to each well. The plates were incubated overnight in a sealed container with a humidified atmosphere. The absorbance was determined at 570 nm wavelength with a reference wavelength of 630 nm using an ELISA plate reader.

[11] = system: MDA MB 468; experiment: Tumor cell line growth; assay type: cell-based; details: Homo sapiens, MDA-MB-468, 96 h; breast, 4 days
Method: as §5, §6

[12] = system: SKOV3; experiment: Tumor cell line growth; assay type: cell-based; details: Homo sapiens
Method: as §5, §6

[13] = system: BT549; experiment: Tumor cell line growth; assay type: cell-based; details: Homo sapiens, BT-549, 96 h; breast, 4 days
Method: as §5, §6

[14] = system: U1240; experiment: Tumor cell line growth; assay type: cell-based; details: 96 h; glioma, 4 days
Method: as §5, §6

[15] = system: A431; experiment: Tumor cell line growth; assay type: cell-based; details: Homo sapiens, A-431, 96 h; epidermoid, 4 days
Method: as §5, §6

[16] = system: SKOV3T; experiment: Tumor cell line growth; assay type: cell-based; details: Homo sapiens
Method: as §5, §6

[17] = LD10; details: in vivo

With `Cc1oncc1C(=O)Nc1ccc(C(F)(F)F)cc1` [Compound A10, 5-methylisoxazole-4 carboxylic acid-(4-trifluromethyl)-anilide] as the compound, how does the “time of complete conversion to B11” value ([1]; 37° C., rat plasma) read?
The value was at most 2 h.

And the “conversion to B11 in heat-inactivated plasma” value ([1]; rat, 15 min at 60° C.)?
Its value is “does not occur”.

And the “tyrosine phosphorylation of the RR-SRC peptide substrate” value [2]?
Its value is “dose dependently, inhibited”.

What about the “EGF stimulated autophosphorylation of EGF-R” value [3] of the same compound?
Its value is “little if any effect on the ability of EGF to stimulate autophosphorylation of EGF-R”.

What about the “plasma concentration, single dose” value ([4]; 20 mg/kg) of the same compound?
Its value is “not detected”.

What about the “plasma concentration, single dose” value ([4]; 40 mg/kg) of the same compound?
The value was “not detected”.

What about the “time by which A10 completely converted and undetectable” value [5] of the same compound?
The value was at most 1 h.

And the EGF-stimulated mitosis [6]?
Its EGF-stimulated mitosis is “not able to inhibit EGF-stimulated mitosis”.

What about the “autophosphorylation of the EGF receptor” value [7] of the same compound?
The value was “dose dependently, inhibited; also recorded: inhibit EGF induced EGF receptor autophosphorylation”.

And the “time detected in plasma” value ([8]; IP A10 80 mg/kg single dose)?
Its value is “up to 8 hr”.

And the “time by which A10 converted to B11” value ([8]; IP A10 80 mg/kg, first time point analyzed)?
The value was at most 2 h.

And the Cmax ([8]; rat, plasma, ip, 80 mg/kg)?
Its Cmax is 5000 ng/mL.

What about the LD50 [9] of the same compound?
Its LD50 is 145 mg/kg.

And the IC50 [10]?
The IC50 was 195 µM.

What about the IC50 [11] of the same compound?
Its IC50 is 150 µM.

What about the IC50 ([12]; SK-OV-3, 96 h, ovarian, 4 days, read-out: IC50) of the same compound?
Its IC50 is over 100 µM.

And the IC50 ([12]; SK-OV-3, PDGF-R expression -, read-out: SRB)?
Its IC50 is over 100 µM.

What about the IC50 [13] of the same compound?
Its IC50 is over 400 µM.

What about the IC50 [14] of the same compound?
Its IC50 is 250 µM.

What about the IC50 [15] of the same compound?
The IC50 was 34 µM.

What about the IC50 ([16]; 96 h, ovarian, 4 days, read-out: IC50) of the same compound?
The IC50 was 40 µM.

And the IC50 ([16]; PDGF-R expression ++, read-out: SRB)?
The IC50 was 50 µM.

For `c1ccc(-c2cnc3cc4ccccc4cc3n2)cc1` [Compound G22], which LD10 [17] is on record?
Its LD10 is 25 mg/kg.
